Results from patent US6638935B2, “Heteroary1 derivatives and their use as medicaments” (Zentaris AG, priority 2000, dated 2003).

melting point: 94 to 96 °C
SMILES: COc1cc(OC)cc(N2CCN(C(=O)c3ccncc3)CC2)c1 [Example 13, 1-(3,5-Dimethoxyphenyl)-4-(4-pyridyl-carbonyl)piperazine]
